Experimental data published in publication PMC9501014, “Amaryllidaceae-Type Alkaloids from Pancratium maritimum: Apoptosis-Inducing Effect and Cell Cycle Arrest on Triple-Negative Breast Cancer Cells” (Molecules, 2022).
Like-named read-outs stand apart in the source and are kept apart here.

Assays:
[1] = test system: MDA-MB-231 cells; assay: Sulforhodamine B antiproliferative assay, MDA-MB-231; type: cell-based, human; conditions: for IC50: sulforhodamine B assay, 48 h of treatment, read-out: IC50 MDA-MDB-231 (A); for SI E/A / SI D/A: selectivity index; for SI E/A: HFF-1 vs MDA-MB-231; for SI D/A: MCF12A vs MDA-MB-231
Protocol: (§1) The antiproliferative effect of the isolated compounds (1–11) was investigated by the sulforhodamine B assay against human triple-negative breast cancer cell lines (MDA-MB-468 and MDA-MB-231) and breast ductal carcinoma cells (MCF-7) and the non-tumorigenic fibroblast (HFF-1) and breast cell lines (MCF12A). The IC50 values were determined after 48 h of treatment (Table 1).
(§2) Human breast adenocarcinoma MDA-MB-231, MDA-MB-468, and MCF-7 cell lines and non-tumorigenic foreskin fibroblast (HFF-1) and breast (MCF12A) cell lines were purchased from American Type Culture Collection (ATCC, Rockville, MD, USA). All cancer cell lines, except MCF12A, were routinely cultured in RPMI-1640 medium with glutamine from Corning (VWR, Carnaxide, Portugal) supplemented with 10% fetal bovine serum (FBS) from Biowest (Labclinics, Barcelona, Spain). MCF12A cells were cultured in a 1:1 mixture of Dulbecco’s modified Eagle’s medium and Ham’s F12 medium, 20 ng/mL human epidermal growth factor, 100 ng/mL cholera toxin, 0.01 mg/mL bovine insulin, and 500 ng/mL hydrocortisone and supplemented with 10% FBS. All cells were maintained in a humidified incubator at 37 °C with 5% CO2. All cells were routinely tested for mycoplasma contamination using the MycoAlertTM PLUS detection kit (Lonza, Basel, Switzerland).
(§3) Human cell lines were seeded in 96-well plates at a density of 5.0 × 10^3 (MDA-MB-231, MCF-7, HFF-1, and MCF12A) and 7.5 × 10^3 (MDA-MB-468) cells/well and allowed to adhere for 24 h. Cells were treated with serial dilutions of compounds (ranging from 0.1 to 40 μM) for an additional 48 h. Effect on cell proliferation was measured by sulforhodamine B assay, as described in [33], and the half-maximal inhibitory concentration (IC50) was then determined for each cell line using the GraphPad Prism software version 7.0 (La Jolla, CA, USA).

[2] = test system: MDA-MB-468 cells; assay: Sulforhodamine B antiproliferative assay, MDA-MB-468; type: cell-based, human; conditions: for IC50: sulforhodamine B assay, 48 h of treatment; for SI E/B / SI D/B: selectivity index; for SI E/B: HFF-1 vs MDA-MB-468; for SI D/B: MCF12A vs MDA-MB-468
Protocol: as §1, §2, §3

[3] = test system: MCF-7 cells; assay: Sulforhodamine B antiproliferative assay, MCF-7; type: cell-based, human; conditions: for IC50: sulforhodamine B assay, 48 h of treatment, read-out: IC50 MCF-7 (C); for SI E/C / SI D/C: selectivity index; for SI E/C: HFF-1 vs MCF-7; for SI D/C: MCF12A vs MCF-7
Protocol: as §1, §2, §3

[4] = test system: MCF12A cells; assay: Sulforhodamine B antiproliferative assay, non-tumorigenic breast MCF12A; type: cell-based; conditions: Homo sapiens, MCF-12A, 48 h of treatment, read-out: IC50 MCF12A (D)
Protocol: as §1, §2, §3

[5] = test system: HFF-1 cells; assay: Sulforhodamine B antiproliferative assay, non-tumorigenic fibroblast HFF-1; type: cell-based; conditions: Homo sapiens, 48 h of treatment, read-out: IC50 HFF-1 (E)
Protocol: as §1, §2, §3

[6] = test system: breast cancer cell lines (MDA-MB-231, MDA-MB-468, MCF-7); assay: Sulforhodamine B assay, all breast cancer cell lines; type: cell-based; conditions: Homo sapiens, read-out: IC50 values against all breast cancer cell lines
Protocol: Aiming to find Amaryllidaceae alkaloids against breast cancer, including the highly aggressive triple-negative breast cancer, the phytochemical study of Pancratium maritimum was carried out. Several Amaryllidaceae-type alkaloids, bearing scaffolds of the haemanthamine-, homolycorine-, lycorine-, galanthamine-, and tazettine-type were isolated (3–11), along with one alkamide (2) and a phenolic compound (1). The antiproliferative effect of compounds (1–11) was evaluated by the sulforhodamine B assay against triple-negative breast cancer cell lines MDA-MB-231 and MDA-MB-468, breast cancer cells MCF-7, and the non-malignant fibroblast (HFF-1) and breast (MCF12A) cell lines. […] The homolycorine-type alkaloid 7 was selected for further investigation in MDA-MB-231 cells. In the annexin-V assay, compound 7 increased cell death by apoptosis, which was substantiated, in western blot analyses, by the increased expression of the pro-apoptotic protein Bax, and the decreased expression of the anti-apoptotic protein Bcl-xL. Consistently, it further stimulated mitochondrial reactive oxygen species (ROS) generation. The antiproliferative effect of compound 7 was also associated with G2/M cell cycle arrest, which was supported by an increase in the p21 protein expression levels.
as §3

[7] = test system: MDA-MB-231 cells; parameters: method as in PMID 28756149; conditions: previous studies ref 30; cited from earlier work
[8] = range over the four alkaloids and MDA-MB-231, MDA-MB-468, MCF-7

Compound	IC50 ([1]; Homo sapiens, MDA-MB-231, 48 h) [nM]	SI E/A [1]	SI D/A [1]	SI E/B [2]	SI D/B [2]	SI E/C [3]	IC50 [4] [nM]	IC50 [5] [nM]	other results
COC1C=CC23c4cc5c(cc4CN(CC2O)C3C1)OCO5 (stereo not drawn) [Compound 11, haemanthamine]	3950	0.68	1.64	0.71	1.71	1.7	6500 ± 1100	2700 ± 720	IC50 [1]: 3900 ± 970 nM; IC50 ([2]; Homo sapiens, MDA-MB-468): 3800 ± 400 nM; IC50 ([3]; Homo sapiens, MCF7): 1600 ± 100 nM; IC50 [6]: 730 to 16300 nM; antiproliferative activity against MDA-MB-231 breast cancer cells [7]: antiproliferative activity
COc1ccc2c3c1O[C@H]1C[C@H](O)C=C[C@@]31CCN(C)C2 [Compound 8, epi-galanthamine]	> 40000	–	–	–	–	–	–	–	–
COc1ccc2c3c1O[C@H]1C[C@@H](O)C=C[C@@]31C(O)CN(C)C2 (stereo partly drawn) [Compound 6, 11α-hydroxygalanthamine]	> 40000	–	–	–	–	–	–	–	–
COc1cc(/C=C/C(=O)NCCc2ccc(O)cc2)ccc1O [Compound 2, N-trans-feruloyl-tyramine]	> 40000	–	–	–	–	–	–	–	–
CO[C@@H]1C=C[C@@]23c4cc5c(cc4CO[C@]2(O)CN(C)[C@H]3C1)OCO5 [Compound 10, tazettine]	39000 ± 1410	–	–	–	–	–	–	–	–
CN1CCC2=C[C@H](O)C3OC(=O)c4cc5c(cc4C3C21)OCO5 (stereo partly drawn) [Compound 4, hippeastrine]	24700 ± 4300	–	–	–	–	–	–	–	–
COc1cc(O)c(C(C)=O)c(OC)c1 [Compound 1, 4,6-dimethoxy-2-hydroxy acetophenone]	> 40000	–	–	–	–	–	–	–	–
O[C@H]1[C@H]2c3cc4c(cc3CN3CCC(=C[C@@H]1O)[C@H]23)OCO4 [Compound 5, lycorine]	920	1.41	3.26	0.91	2.11	1.78	3000 ± 300	1300 ± 300	IC50 [1]: 900 ± 200 nM; IC50 ([2]; Homo sapiens, MDA-MB-468, 48 h): 1420 nM; IC50 [2]: 1400 ± 10 nM; IC50 ([3]; Homo sapiens, MCF7, 48 h): 730 nM; IC50 [3]: 700 ± 10 nM; IC50 [6, 8]: 730 to 16300 nM; antiproliferative activity against MDA-MB-231 breast cancer cells [7]: antiproliferative activity
COc1cc([C@@H]2c3cc4c(cc3[C@@H](O[C@@H]3O[C@@H]5CO[C@@H](C)O[C@H]5[C@H](O)[C@H]3O)[C@H]3COC(=O)[C@H]23)OCO4)cc(OC)c1O [Etoposide, reference compound]	2900 ± 100	1.31	0.79	2.23	1.35	1.23	2300 ± 130	3800 ± 90	IC50 ([2]; Homo sapiens, MDA-MB-468, 48 h): 1700 ± 50 nM; IC50 ([3]; Homo sapiens, MCF7, 48 h): 3100 ± 50 nM; SI D/C [3]: 0.74
CO[C@@H]1C=C[C@@]23c4cc5c(cc4[C@@H](O)N(C[C@H]2O)[C@H]3C1)OCO5 [Compound 3, haemanthidine]	4880	0.56	1.02	0.78	1.42	1.01	5000 ± 500	2700 ± 150	IC50 [1]: 4900 ± 1160 nM; IC50 ([2]; Homo sapiens, MDA-MB-468, 48 h): 3500 ± 300 nM; IC50 ([3]; Homo sapiens, MCF7, 48 h): 2700 ± 100 nM; SI D/C [3]: 1.85; IC50 [6, 8]: 730 to 16300 nM; antiproliferative activity against MDA-MB-231 breast cancer cells [7]: antiproliferative activity
COc1cc2c(cc1O)C(=O)OC1CC=C3CCN(C)C3C21 (stereo not drawn) [Compound 9, 8-O-demethylhomolycorine]	> 40000	–	–	–	–	–	–	–	–
